Laboratory results taken from US20230074885A1, “BORTEZOMIB-LOADED NANOPARTICLES” (The Johns Hopkins University, priority 2020, published 2023).

Experiments:
[1] = tested on: patient derived xenograft (PDX) model established from a human primary HCC; assay: In vivo treatment of patient derived xenograft (PDX) mouse model of liver cancer; parameters: species or system NSG mice
Protocol: In vivo therapeutic effect of BTZ-loaded nanoparticles. The therapeutic effect of BTZ-loaded nanoparticles was assessed using patient derived xenograft (PDX) model. Briefly, fresh human tumor tissue was harvested from HCC patients, then cut in small pieces (3^3 mm^3) and implanted subcutaneously in the right flank of NSG mice. Once tumors grew, a similar process (harvesting tumors from mice, mincing and inserting in new mice) was implemented. Mice at the 5th passage of PDX were utilized in this experiment. After implantation subcutaneously, the tumor is allowed to grow to approximately 1,000 mm^3. Next, mice were randomized to blank nanoparticles and BTZ-loaded nanoparticles with an equivalence of 2.2 mg/kg BTZ. The tumor sizes of mice in different groups were measured through two weeks and were taken as the reflection of therapeutic effect of different formulations.

[2] = tested on: primary patient-derived cancer organoid (PDO) cultures from patients with liver cancers; assay: FDA-approved cancer drugs tested across patient-derived cancer organoid (PDO) cultures; format: cell-based, human
Protocol: Thirty-seven primary patient-derived cancer organoid (PDO) cultures have been established from patients with liver cancers (including hepatocellular cancer and cholangiocarcinoma). Food and Drug Administration (FDA)-approved cancer drugs (irrespective of FDA indication) were tested across all 37 PDO cultures.

[3] = cited from earlier work
[4] = Dose escalation test on animal survival; format: in vivo, mice
Protocol: Dose escalation test on animal survival following local subcutaneous injection of the 1-month BTZ nanoparticle (BTZ NP) formulation in comparison with free BTZ injection via intratumor injection.
The recommended dose in patients is 1.3 mg/m^2. This dose is also the maximum tolerated dose in patients. […] One of the essential features of BTZ-NP is the ability to release active BTZ gradually. The ability of BTZ-NP to release BTZ slowly by subcutaneous injections was evaluated with increasing doses of BTZ-NP. As shown, a dose of 108 mg/m^2 could be injected without any death in rodents. This dose is approximately 80-fold higher than the dose of the free drug that is sufficient to kill rodents.

Question: Which “animal death due to toxicity” value ([1]; high dose 0.8 mg/kg free BTZ) does the source give for `CC(C)C[C@H](NC(=O)[C@H](Cc1ccccc1)NC(=O)c1cnccn1)B(O)O` [free BTZ, bortezomib] here?
Answer: died 1 day after injection

Question: And the “efficacy in PDX model of liver cancer” value ([1]; mouse, in vivo)?
Answer: effective

Question: What about the “effectiveness across PDO lines” value ([2]; 37 PDO cultures, hepatocellular cancer and cholangiocarcinoma) of the same compound?
Answer: highly effective across all tested PDO lines

Question: What about the “effectiveness compared with currently approved FDA drugs for unresectable liver cancers” value ([2]; across all 37 PDO lines) of the same compound?
Answer: more effective than any of the currently approved FDA drugs

Question: And the “recommended dose / maximum tolerated dose in patients” value [3]?
Answer: 1.3 mg/m^2

Question: And the cause of death ([4]; 1 mg/kg free BTZ, intra-tumor injection)?
Answer: liver failure

Question: What about the Survival ([4]; 1 mg/kg free BTZ, single intra-tumor injection, 12.5 μg/dose, 1.5 mg/m^2) of the same compound?
Answer: 0/5

Question: What about the “lethal dose in rodent model” value ([4]; intratumoral injection) of the same compound?
Answer: 1.5 mg/m^2
